From article PMC12655172, “Borylated 5-Membered Ring Iminosugars: Synthesis and Biological Evaluation for Glycosidase Inhibition and Anticancer Properties for Application in Boron Neutron Capture Therapy (BNCT)—Part 2” (Pharmaceuticals, 2025)
Values joined by “and” are separate entries in the source; they are usually repeats but may differ in a detail not shown here. Identical values can stand only once.

Key:
[1] = test system: β-D-glucosidase (human lysosome); test: Glycosidase inhibition (Table 2 panel); type: biochemical; conditions: at 100 μM
[2] = Sample appearance on sample preparation in water; type: physicochemical; conditions: 1 mL of water was added to 1 mg solid
[3] = test system: β-D-galactosidase (E. coli); test: Glycosidase inhibition (Table 2 panel); type: biochemical; conditions: at 100 μM
[4] = target: T1, β-D-galactosidase (bovine liver) (Bos taurus, UniProt F1MNT6); test: Glycosidase inhibition (Table 2 panel); type: biochemical; conditions: at 100 μM
T1 sequence (F1MNT6 1-469): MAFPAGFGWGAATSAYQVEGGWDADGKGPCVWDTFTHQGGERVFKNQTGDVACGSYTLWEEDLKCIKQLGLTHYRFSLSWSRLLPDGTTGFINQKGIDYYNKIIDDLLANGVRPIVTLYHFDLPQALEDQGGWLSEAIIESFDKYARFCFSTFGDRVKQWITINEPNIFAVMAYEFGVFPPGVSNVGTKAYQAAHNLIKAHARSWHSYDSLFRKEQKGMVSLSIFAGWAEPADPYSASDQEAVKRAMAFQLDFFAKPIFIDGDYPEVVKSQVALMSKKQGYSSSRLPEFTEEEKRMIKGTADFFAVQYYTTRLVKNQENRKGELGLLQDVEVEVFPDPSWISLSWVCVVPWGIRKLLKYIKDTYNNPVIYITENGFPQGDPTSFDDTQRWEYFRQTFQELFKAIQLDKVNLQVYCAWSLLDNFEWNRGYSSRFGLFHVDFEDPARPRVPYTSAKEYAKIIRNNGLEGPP
Procedure, shortened: (§1)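 Absorbance at 400 nm quantified para-nitrophenol liberated from […] para-nitrophenyl glycoside substrate, at the optimal pH for each enzyme […]. Na2CO3 […] terminated the reactions.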

[5] = test system: T2, trehalase (porcine kidney); test: Glycosidase inhibition (Table 2 panel); type: biochemical
T2 construct: purchased Sigma-Aldrich; host or cells: porcine kidney

[6] = test system: α-D-glucosidase (human lysosome); test: Glycosidase inhibition (Table 2 panel); type: biochemical; conditions: at 100 μM
[7] = test system: α-L-rhamnosidase (P. decumbens); test: Glycosidase inhibition (Table 2 panel); type: biochemical
Procedure, shortened: as §1

[8] = target: T3, β-D-glucosidase (bovine liver) (Bos taurus, UniProt F1MNT6); test: Glycosidase inhibition (Table 2 panel); type: biochemical; conditions: at 100 μM
T3 sequence (F1MNT6 1-469): T1 sequence (F1MNT6 1-469)
Procedure, shortened: as §1

[9] = test system: β-D-glucuronidase (bovine liver); test: Glycosidase inhibition (Table 2 panel); type: biochemical
Procedure, shortened: as §1

[10] = test system: α-D-glucosidase (rat intestinal maltase); test: Glycosidase inhibition (Table 2 panel); type: biochemical
[11] = test system: β-D-glucanase (T. Longibrachiatum); test: Glycosidase inhibition (Table 2 panel); type: biochemical; conditions: at 100 μM
[12] = test system: MCF10A (non-tumour derived normal breast cell line); test: Cancer screening, MTT growth inhibition; type: cell-based; conditions: Homo sapiens, MCF-10A, 72 h; for inhibition at 25 µM: 25 µM of drug, read-out: DOSE SCREEN percentage (%) cell growth inhibition MCF10A Breast (normal); for GI50: read-out: DOSE RESPONSE GI50 MCF10A Breast (normal)
[13] = test system: α-D-glucosidase (rat intestine); test: Glycosidase inhibition (Table 3 panel); type: biochemical; conditions: 1 mg/mL aqueous solution; run in water
Protocol: (§2) All enzymes and para-nitrophenyl substrates were purchased from Sigma. Enzymes were assayed at 27 °C in citric acid (0.1 M)/disodium hydrogen phosphate (0.2 M) buffers at the optimum pH for the enzyme. The incubation mixture consisted of […] of 1 mg/mL aqueous solution of extract and […] of the appropriate […] para-nitrophenyl substrate made up in buffer at the optimum pH for the enzyme. The reactions were stopped by addition of […] 0.4 M glycine (pH 10.4) during the exponential phase of the reaction, which had been determined at the beginning using uninhibited assays in which water replaced the inhibitor. Final absorbances were read at 405 nm using a Versamax microplate reader (Molecular Devices, Wokingham, UK). Assays were carried out in triplicate, and the values given are means of the three replicates per assay. All reactions were run in water.

[14] = test system: N-acetyl-β-D-hexosaminidase (rat intestine); test: Glycosidase inhibition (Table 3 panel); type: biochemical; conditions: 1 mg/mL aqueous solution; run in water
Protocol: as §2

β-D-glucosidase (almond) = test: Glycosidase inhibition (Table 3 panel); type: biochemical; conditions: 1 mg/mL aqueous solution; run in water
Protocol: as §2

[15] = test system: β-D-glucuronidase (bovine liver); test: Glycosidase inhibition (Table 3 panel); type: biochemical; conditions: 1 mg/mL aqueous solution; run in water
Protocol: as §2

α-D-glucosidase (yeast) = target: T4, α-D-glucosidase (yeast) (Saccharomyces cerevisiae, UniProt P53341); test: Glycosidase inhibition (Table 3 panel); type: biochemical; conditions: 1 mg/mL aqueous solution, run in water; for inhibition at 1000 µg/mL (stock): read-out: Percentage inhibition α-D-Glucosidase Yeast
T4 construct: purchased Sigma-Aldrich
T4 sequence (P53341 whole entry): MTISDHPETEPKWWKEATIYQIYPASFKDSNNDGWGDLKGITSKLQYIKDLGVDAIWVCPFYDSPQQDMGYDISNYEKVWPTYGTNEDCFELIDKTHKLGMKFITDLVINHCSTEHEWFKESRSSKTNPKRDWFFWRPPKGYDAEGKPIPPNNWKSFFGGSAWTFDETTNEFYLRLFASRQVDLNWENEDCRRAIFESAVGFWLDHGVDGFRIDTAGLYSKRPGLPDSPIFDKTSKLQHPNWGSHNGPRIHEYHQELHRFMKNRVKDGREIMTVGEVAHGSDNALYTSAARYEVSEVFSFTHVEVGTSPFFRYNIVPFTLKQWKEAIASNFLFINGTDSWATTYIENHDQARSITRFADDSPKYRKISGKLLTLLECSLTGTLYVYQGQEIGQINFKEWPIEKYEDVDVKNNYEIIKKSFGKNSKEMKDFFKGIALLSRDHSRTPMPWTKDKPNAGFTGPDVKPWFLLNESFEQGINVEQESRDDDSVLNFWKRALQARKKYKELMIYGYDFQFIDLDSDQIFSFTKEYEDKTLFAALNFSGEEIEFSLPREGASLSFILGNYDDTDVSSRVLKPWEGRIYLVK
Protocol: All enzymes and para-nitrophenyl substrates were purchased from Sigma. Enzymes were assayed at 27 °C in citric acid (0.1 M)/disodium hydrogen phosphate (0.2 M) buffers at the optimum pH for the enzyme. The incubation mixture consisted of […] of 1 mg/mL aqueous solution of extract and […] of the appropriate 5 μM para-nitrophenyl substrate made up in buffer at the optimum pH for the enzyme. […] Assays were carried out in triplicate, and the values given are means of the three replicates per assay. All reactions were run in water.

[16] = test system: T5, α-L-fucosidase (bovine kidney); test: Glycosidase inhibition (Table 2 panel); type: biochemical; conditions: at 1000 μM
T5 construct: purchased Sigma-Aldrich; host or cells: bovine kidney
Procedure, shortened: as §1

CC1(C)O[C@H]2O[C@H]3[C@@H]([C@H]2O1)N(Cc1ccccc1B(O)O)C[C@H]3O [ortho 5]
inhibition % β-D-Glucosidase Human Lysosome [1]: ^cNI ^d(3.5%) | Sample Appearance [2]: In solution | inhibition % β-D-Galactosidase E. coli [3]: ^cNI ^d(0%) | inhibition at 100 µM [4]: 6.1% | inhibition % Trehalase Porcine Kidney ([5]; at 100 μM): ^cNI ^d(4.9%) | inhibition % α-D-Glucosidase Human Lysosome [6]: ^cNI ^d(0%) | inhibition % α-L-Rhamnosidase P. decumbens ([7]; at 100 μM): ^cNI ^d(0%) | inhibition at 100 µM [8]: 13.4% | inhibition % β-D-Glucuronidase Bovine Liver ([9]; at 100 μM): ^cNI ^d(0%) | inhibition % α-D-Glucosidase Rat Intestinal Maltase ([10]; at 100 μM): ^cNI ^d(0%) | inhibition % β-D-Glucanase T. Longibrachiatum [11]: ^cNI ^d(5.2%) | inhibition at 25 µM [12]: 7 ± 6% | GI50 [12]: > 50 µM | Percentage inhibition α-D-Glucosidase Rat Intestine [13]: 4.2% | Percentage inhibition N-Acetyl-β-D-Hexosaminidase Rat Intestine [14]: 5.2% | Percentage inhibition β-D-Glucosidase Almond (β-D-glucosidase (almond)): 8.7% | Percentage inhibition β-D-Glucuronidase Bovine Liver [15]: 1.4% | Percentage inhibition α-D-Glucosidase Yeast (α-D-glucosidase (yeast)): 11% | inhibition at 1000 µg/mL (stock) (α-D-glucosidase (yeast)): 8.7%

CC1(C)O[C@H]2O[C@H]3[C@@H]([C@H]2O1)N(Cc1cccc(O)c1)C[C@H]3O [meta 6]
inhibition % β-D-Glucosidase Human Lysosome [1]: ^cNI ^d(0%) | Sample Appearance [2]: In solution | inhibition % β-D-Galactosidase E. coli [3]: ^cNI ^d(0.8%) | inhibition at 100 µM [4]: 15.5% | inhibition % Trehalase Porcine Kidney ([5]; at 100 μM): ^cNI ^d(0%) | inhibition % α-D-Glucosidase Human Lysosome [6]: ^cNI ^d(3.3%) | inhibition % α-L-Rhamnosidase P. decumbens ([7]; at 100 μM): ^cNI ^d(6.5%) | inhibition at 100 µM [8]: 15.8% | inhibition % β-D-Glucuronidase Bovine Liver ([9]; at 100 μM): ^cNI ^d(1.6%) | inhibition % α-D-Glucosidase Rat Intestinal Maltase ([10]; at 100 μM): ^cNI ^d(4.7%) | inhibition % β-D-Glucanase T. Longibrachiatum [11]: ^cNI ^d(3.1%) | inhibition at 25 µM [12]: 4 ± 2% | GI50 [12]: > 50 µM | Percentage inhibition α-D-Glucosidase Rat Intestine [13]: 4.8% | Percentage inhibition N-Acetyl-β-D-Hexosaminidase Rat Intestine [14]: −0.7% | Percentage inhibition β-D-Glucosidase Almond (β-D-glucosidase (almond)): 0.7% | Percentage inhibition β-D-Glucuronidase Bovine Liver [15]: 3.6% | inhibition at 1000 µg/mL (stock) (α-D-glucosidase (yeast)): 6.6%

CC1(C)O[C@H]2O[C@H]3[C@@H]([C@H]2O1)N(Cc1cccc(B(O)O)c1)C[C@H]3O [meta 5, N-(3-Methylphenylboronic acid)-3,6-dideoxy-3,6-imino-1,2-O-isopropylidene-α-D-glucofuranose]
inhibition % β-D-Glucosidase Human Lysosome [1]: ^cNI ^d(0%) | Sample Appearance [2]: In solution | inhibition % β-D-Galactosidase E. coli [3]: ^cNI ^d(0%) | inhibition at 100 µM [4]: 0% | inhibition % Trehalase Porcine Kidney ([5]; at 100 μM): ^cNI ^d(0%) | inhibition % α-D-Glucosidase Human Lysosome [6]: ^cNI ^d(0.3%) | inhibition % α-L-Rhamnosidase P. decumbens ([7]; at 100 μM): ^cNI ^d(0.6%) | inhibition at 100 µM [8]: 23% | inhibition % β-D-Glucuronidase Bovine Liver ([9]; at 100 μM): ^cNI ^d(2.9%) | inhibition % α-D-Glucosidase Rat Intestinal Maltase ([10]; at 100 μM): ^cNI ^d(0%) | inhibition % β-D-Glucanase T. Longibrachiatum [11]: ^cNI ^d(0%) | inhibition at 25 µM [12]: 7 ± 4% | GI50 [12]: > 50 µM | Percentage inhibition α-D-Glucosidase Rat Intestine [13]: 11.6% | Percentage inhibition N-Acetyl-β-D-Hexosaminidase Rat Intestine [14]: 5% | Percentage inhibition β-D-Glucosidase Almond (β-D-glucosidase (almond)): 7.7% | Percentage inhibition β-D-Glucuronidase Bovine Liver [15]: −0.9% | Percentage inhibition α-D-Glucosidase Yeast (α-D-glucosidase (yeast)): 13.7% | inhibition at 1000 µg/mL (stock) (α-D-glucosidase (yeast)): 14.8%

OB(O)c1ccccc1CN1C[C@@H](O)[C@H]2OC(O)[C@H](O)[C@H]21 (stereo partly drawn) [ortho 3, N-(2-Methylphenylboronic acid)-3,6-dideoxy-3,6-imino-D-gulofuranose]
inhibition % β-D-Glucosidase Human Lysosome [1]: ^cNI ^d(0%) | Sample Appearance [2]: In solution | inhibition % β-D-Galactosidase E. coli [3]: ^cNI ^d(4.4%) | inhibition % α-L-Fucosidase Bovine Kidney [16]: ^aNI ^b(2.1%) | inhibition % Trehalase Porcine Kidney ([5]; at 100 μM): ^cNI ^d(0%) | inhibition % Trehalase Porcine Kidney ([5]; at 1000 μM): ^aNI ^b(0%) | inhibition % α-D-Glucosidase Human Lysosome [6]: ^cNI ^d(0.3%) | inhibition % α-L-Rhamnosidase P. decumbens ([7]; at 100 μM): ^cNI ^d(0%) | inhibition % α-L-Rhamnosidase P. decumbens ([7]; at 1000 μM): ^aNI ^b(3.2%) | inhibition at 100 µM [8]: 0% | inhibition % β-D-Glucuronidase Bovine Liver ([9]; at 100 μM): ^cNI ^d(2.9%) | inhibition % β-D-Glucuronidase Bovine Liver ([9]; at 1000 μM): ^aNI ^b(6.6%) | inhibition % α-D-Glucosidase Rat Intestinal Maltase ([10]; at 100 μM): ^cNI ^d(0%) | inhibition % α-D-Glucosidase Rat Intestinal Maltase ([10]; at 1000 μM): ^aNI ^b(0.7%) | inhibition % β-D-Glucanase T. Longibrachiatum [11]: ^cNI ^d(0%) | inhibition at 25 µM [12]: 9 ± 7% | GI50 [12]: > 50 µM | Percentage inhibition α-D-Glucosidase Rat Intestine [13]: −1.4% | Percentage inhibition N-Acetyl-β-D-Hexosaminidase Rat Intestine [14]: 19.2% | Percentage inhibition β-D-Glucosidase Almond (β-D-glucosidase (almond)): 68.6% | Percentage inhibition β-D-Glucuronidase Bovine Liver [15]: 1.3% | inhibition at 1000 µg/mL (stock) (α-D-glucosidase (yeast)): 4.1%

OB(O)c1cccc(CN2C[C@@H](O)[C@H]3OC(O)[C@H](O)[C@H]32)c1 (stereo partly drawn) [meta 3, N-(3-Methylphenylboronic acid)-3,6-dideoxy-3,6-imino-D-gulofuranose]
inhibition % β-D-Glucosidase Human Lysosome [1]: ^cNI ^d(6.6%) | Sample Appearance [2]: In solution | inhibition % β-D-Galactosidase E. coli [3]: ^cNI ^d(0.2%) | inhibition % α-L-Fucosidase Bovine Kidney [16]: ^aNI ^b(3.8%) | inhibition % Trehalase Porcine Kidney ([5]; at 100 μM): ^cNI ^d(20.9%) | inhibition % Trehalase Porcine Kidney ([5]; at 1000 μM): ^aNI ^b(0%) | inhibition % α-D-Glucosidase Human Lysosome [6]: ^cNI ^d(3.5%) | inhibition % α-L-Rhamnosidase P. decumbens ([7]; at 100 μM): ^cNI ^d(1.2%) | inhibition % α-L-Rhamnosidase P. decumbens ([7]; at 1000 μM): ^aNI ^b(3.2%) | inhibition at 100 µM [8]: 8.2% | inhibition % β-D-Glucuronidase Bovine Liver ([9]; at 100 μM): ^cNI ^d(1.2%) | inhibition % β-D-Glucuronidase Bovine Liver ([9]; at 1000 μM): ^aNI ^b(7.2%) | inhibition % α-D-Glucosidase Rat Intestinal Maltase ([10]; at 100 μM): ^cNI ^d(12.3%) | inhibition % α-D-Glucosidase Rat Intestinal Maltase ([10]; at 1000 μM): ^aNI ^b(2.0%) | inhibition % β-D-Glucanase T. Longibrachiatum [11]: ^cNI ^d(0%) | inhibition at 25 µM [12]: 6 ± 4% | GI50 [12]: > 50 µM | Percentage inhibition α-D-Glucosidase Rat Intestine [13]: 12.1% and 8.9% | Percentage inhibition N-Acetyl-β-D-Hexosaminidase Rat Intestine [14]: 8.7% | Percentage inhibition β-D-Glucosidase Almond (β-D-glucosidase (almond)): 61.7% | Percentage inhibition β-D-Glucuronidase Bovine Liver [15]: 13.3% | inhibition at 1000 µg/mL (stock) (α-D-glucosidase (yeast)): -16.7%
